According to patent US20210138025A1, “CATIONIC PEPTIDES WITH IMMUNOMODULATORY AND/OR ANTI-BIOFILM ACTIVITIES” (priority 2018, published 2021):
Non-standard residues stand in square brackets, D forms with d. No end group written: not given here.

How the values were obtained:
[1] = test system: Salmonella typhimurium (ATCC 14028); assay: Biofilm inhibition, static microtitre plate assay, crystal violet (Table 17); conditions: BM2 minimal media
P. aeruginosa (PAO1) = assay: Biofilm inhibition, static microtitre plate assay, crystal violet (Table 17; FIG. 19); conditions: BM2 minimal media
[2] = test system: S. aureus (methicillin resistant clinical isolate C623); assay: as above; conditions: 10% tryptic soy broth with 0.1% glucose
E. coli O157:H7 = assay: Biofilm inhibition, static microtitre plate assay, crystal violet (Table 17); conditions: BM2 minimal media

Sequence | peptide concentration that inhibited more than 90% of adhered biofilm biomass, S. typhimurium (ATCC 14028) [1] [µM] | peptide concentration that inhibited more than 90% of adhered biofilm biomass, P. aeruginosa (PAO1) (P. aeruginosa (PAO1)) [µM] | peptide concentration that inhibited more than 90% of adhered biofilm biomass, S. aureus (C623) [2] [µM] | peptide concentration that inhibited more than 90% of adhered biofilm biomass, E. coli (O157:H7) (E. coli O157:H7) [µM]
IWLRLKVVLKRK (not fully specified; also: D-amino acid(s), positions not given here) [Peptide D-3006] | 2 | 2 | 4 | 2
KRKLVVKLRLWI ([dK][dR][dK][dL][dV][dV][dK][dL][dR][dL][dW][dI]) [RI-3006] | 4 | 4 | 8 | 4
KVVWIKVKIKLV ([dK][dV][dV][dW][dI][dK][dV][dK][dI][dK][dL][dV]) [RI-3007] | 16 | 32 | 16 | 16
RRWIRVAVILRV ([dR][dR][dW][dI][dR][dV][dA][dV][dI][dL][dR][dV]) [RI-1018, reference compound] | 2 | 4 | 8 | 1
VLKIKVKIWVVK (not fully specified; also: D-amino acid(s), positions not given here) [Peptide D-3007] | 4 | 8 | 8 | 4
